Data published in publication PMC8205491, “Tetrahydroxanthohumol, a xanthohumol derivative, attenuates high-fat diet-induced hepatic steatosis by antagonizing PPARγ” (eLife, 2021).

Target: T1, PPARγ (Homo sapiens, UniProt P37231)
T1 construct: gene PPARG
T1 sequence (P37231 235-505 limits assumed): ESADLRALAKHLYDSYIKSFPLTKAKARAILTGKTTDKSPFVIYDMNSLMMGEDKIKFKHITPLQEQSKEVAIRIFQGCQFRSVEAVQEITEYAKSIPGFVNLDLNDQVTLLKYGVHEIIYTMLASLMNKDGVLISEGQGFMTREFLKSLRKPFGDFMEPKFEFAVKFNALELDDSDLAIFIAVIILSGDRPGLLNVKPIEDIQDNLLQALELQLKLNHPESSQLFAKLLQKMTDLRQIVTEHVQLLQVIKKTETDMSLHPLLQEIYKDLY
Test: LanthaScreen TR-FRET competitive binding assay (displacement of Fluormone Pan-PPAR Green)

IC50 [nM] | Compound
1380 | COc1cc(O)c(CCC(C)C)c(O)c1C(=O)CCc1ccc(O)cc1 [TXN, Tetrahydroxanthohumol]
1970 | COc1cc(O)c(CC=C(C)C)c(O)c1C(=O)/C=C/c1ccc(O)cc1 [XN, Xanthohumol]

Compound | IC50 [nM]
CCCCCCCC/C=C\CCCCCCCC(=O)O [Oleic acid] | 16600
